US10526325B2, “Bicyclic heterocyclic derivatives” (Merck Patent GmbH, priority 2015, dated 2020)
Where two headings read alike, the source gives them in different places.

How the values were obtained:
human PDHK2 (12-407) = human PDHK2 (12-407) (Homo sapiens (Human), UniProt Q15119); assay: Isothermal titration calorimetry (ITC) binding; conditions: ITC at 30° C., pH 7.5
Description: Isothermal Titration Calorimetry
ITC measurements were performed with a VP-ITC micro calorimeter (Microcal, LLC/GE Healthcare Bio-Sciences Aft Uppsala, Sweden). In general titrations were performed by titrating the protein (50 μM) to the test compound (5 μM) in 12 μl injections. All binding experiments were carried out at 30° C. In general the test compounds were diluted form DMSO stock solutions into the measurement buffer with a maximum final concentration of 1% DMSO. The measurement buffer was 20 mM HEPES, 135 mM KCl, 1 mM TCEP, 2 mM MgCl2, 15 mM NaH2PO4, pH 7.5. The human PDHK2 (12-407) was produced in E. coli as his-tagged protein and purified by affinity chromatography. The tag was removed by side specific proteolysis. Before titration the protein buffer was changed to the measurement buffer containing the same DMSO concentration as the test compound dilution. ITC data analysis was performed using Origin 7 calorimetry software from the same supplier. For most measurements a binding model of one binding site was assumed. According to the applied mathematical model it is possible to calculate the binding constant (KA), the observed binding enthalpy (ΔH^obs) as well as the stoichiometry (N) of the formed complex.
Preceding analysis the raw data was corrected for the heats of dilution by extrapolating from the saturation value from the end of titration. In order to allow for direct comparison between the respective experimental series and protein preparations the protein concentration was corrected by referencing titrations to a well behaved standard inhibitor. The apparent stoichiometry values defined the fraction of binding competent protein and compensated for relative errors in protein concentration measurements. This corrected protein concentration was used to set up ITC experiment series with test compounds. Any deviations from ideal 1:1 stoichiometry observed here were attributed to errors in compound concentration. This nominal compound concentration was corrected as well to achieve 1:1 stoichiometry in the fit.

PDHK2 = PDHK2 (Homo sapiens (Human), UniProt Q15119); assay: Biochemical activity testing of PDHK2: PDC inactivation assay; conditions: human rec PDHK2, porcine heart PDC, 5 μM ATP, read-out: IC50 PDHK2 (enzyme assay)
Source text: Biochemical Activity Testing of PDHK2: PDC Inactivation Assay
The biochemical activity assay for PDHK2 is based on the inactivation of PDC through phosphorylation by PDHK2. The assay is run in two steps: the enzymatic PDHK2 reaction in which isolated PDC is phosphorylated by PDHK2 with ATP as co-substrate and the PDC activity assay in which pyruvate and NAD are converted to acetyl-CoA and NADH. The PDC activity correlates to the increase in NADH and thereby is detectable directly via the increasing fluorescence signal (Exc 340 nm, Em 450 nm). Inhibition of PDHK2 results in a lower phosphorylation status and thereby a less decrease in activity of PDC and a stronger increase in NADH fluorescence signal.
The PDC inactivation assay is performed in Greiner 384-well microtiter plates and is used for high throughput screen. 4 μl of PDHK2 (human, rec, Carna Bioscience, 10 ng/μl-137 nM final concentration) and PDC (isolated from porcine heart, Sigma-Aldrich, 20 mU/ml final concentration) are incubated in the absence or presence of the test compound (10 dilution concentrations) for 30 min at room temperature in kinase buffer (15 mM potassium phosphate buffer, pH 7.0, 60 mM KCl, 1.5 mM DTT, 2.5 mM MgCl2, 0.0125% (w/v) BSA, 0.125% Pluronic F-68). The kinase reaction is started by the addition of 4 μl ATP substrate solution (fc 5 μM in kinase buffer). After 30 min incubation at 37° C. 40 μl of PDC reaction solution (100 mM Tris/HCl, pH 7.8, 0.5 mM EDTA, 1 mM MgCl2, 50 mM NaF, 0.25 mM Coenzyme A, 5 mM pyruvate, 1 mM NAD, 5 mM DTT, 1 mM thiamine pyrophosphate) is added. The first fluorescence measurement is performed on a Perkin Elmer Envision (Exc 340 nm, Em 450 nm). The reaction is incubated for 45 min at room temperature. Afterwards a second fluorescence measurement is performed and the PDC activity is calculated by the difference between both measurements. As full value for the PDHK2 assay the inhibitor-free PDHK2 reaction is used. The pharmacological zero value used is DCA (Sigma-Aldrich) in a final concentration of 3 mM. The inhibitory values […] were determined using either the program Symyx Assay Explorer® or Condosseo® from GeneData.

[1] = system: PDH-E1alpha (pSer300) in HEK293T cells; assay: Cellular immunofluorescence assay, PDH-E1alpha (pSer300) in HEK293T cells; assay type: cell-based, human; conditions: 5 hours incubation, anti-PDH-E1alpha (pSer300) immunofluorescence, read-out: IC50 (cell data)
Description: Cellular Assay for Determination of Compound Activities
Compound activities were determined in a cellular immunofluorescence assay. Human HEK293T cells were seeded into black 384-well plates with clear bottom and grown overnight.
Next day, test compounds were added to the wells and the plates incubated for 5 hours. Following this, cells were fixed with formaldehyde, permeabilised and blocked. The primary antibody, Anti-PDH-E1alpha (pSer300), AP1064 (Merck Millipore) was added and incubated overnight in the plate wells. Next, cells were washed and the secondary antibody, Alexa Fluor 488, goat anti-rabbit ab (A-11008, Invitrogen) was added together with Hoechst 33258 (H3569, Invitrogen) and incubated for 1 hour in the plate wells. Finally, cells were washed and the plates were measured on the laser scanning cytometer acumen hci (TTpLabtech).
The raw data were normalized against a pharmacological inhibitor control and dose response curves were generated by plotting the percent effect values using the software package Genedata screener (Genedata).

Kd (human PDHK2 (12-407)) | IC50 (PDHK2) | SMILES | IC50 ([1]; Homo sapiens, HEK-293T) | IC50 [1]
< 300 nM | < 300 nM | CC1CN(C(=O)[C@@](C)(O)C(F)(F)F)Cc2cnn(-c3ccc(F)cc3)c21 (stereo partly drawn) [Compound A12, (2R)-3,3,3-trifluoro-1-[1-(4-fluorophenyl)-7-methyl-6,7-dihydro-4H-pyrazolo[4,3-c]pyridin-5-yl]-2-hydroxy-2-methyl-propan-1-one] | < 300 nM | –
300 to 3000 nM | 300 to 3000 nM | CC1CN(C(=O)[C@@](C)(O)C(F)(F)F)Cc2cn(-c3ccc(F)cc3)nc21 (stereo partly drawn) [Compound A13, (2R)-3,3,3-trifluoro-1-[2-(4-fluorophenyl)-7-methyl-6,7-dihydro-4H-pyrazolo[4,3-c]pyridin-5-yl]-2-hydroxy-2-methyl-propan-1-one] | 3000 to 50000 nM | –
< 300 nM | < 300 nM | C[C@@H]1CN(C(=O)[C@@](C)(O)C(F)(F)F)Cc2cnn(-c3ccc(F)cc3)c21 [Compound A14, (R)-3,3,3-Trifluoro-1-[(R)-1-(4-fluoro-phenyl)-7-methyl-1,4,6,7-tetrahydro-pyrazolo[4,3-c]pyridin-5-yl]-2-hydroxy-2-methyl-propan-1-one] | < 300 nM | –
< 300 nM | < 300 nM | CC1CN(C(=O)[C@@](C)(O)C(F)(F)F)Cc2cnn(-c3ccccc3)c21 (stereo partly drawn) [Compound A16, (R)-3,3,3-Trifluoro-2-hydroxy-2-methyl-1-(7-methyl-1-phenyl-1,4,6,7-tetra-hydro-pyrazolo[4,3-c]pyridin-5-yl)-propan-1-one] | < 300 nM | –
< 300 nM | < 300 nM | C[C@@H]1CN(C(=O)[C@@](C)(O)C(F)(F)F)Cc2cnn(-c3ccccc3)c21 [Compound A18, (R)-3,3,3-Trifluoro-2-hydroxy-2-methyl-1-((R)-7-methyl-1-phenyl-1,4,6,7-tetrahydro-pyrazolo[4,3-c]pyridin-5-yl)-propan-1-one] | < 300 nM | –
< 300 nM | < 300 nM | C[C@@H]1CN(C(=O)[C@@](C)(O)C(F)(F)F)Cc2cnn(-c3ccc(F)cc3F)c21 [Compound A20, (R)-1-[(R)-1-(2,4-Difluoro-phenyl)-7-methyl-1,4,6,7-tetrahydro-pyrazolo[4,3-c]pyridin-5-yl]-3,3,3-trifluoro-2-hydroxy-2-methyl-propan-1-one] | < 300 nM | –
< 300 nM | < 300 nM | C[C@@H]1CN(C(=O)[C@@](C)(O)C(F)(F)F)Cc2cnn(C(C)(C)C)c21 [Compound A22, (R)-1-((R)-1-tert-Butyl-7-methyl-1,4,6,7-tetrahydro-pyrazolo[4,3-c]pyridin-5-yl)-3,3,3-trifluoro-2-hydroxy-2-methyl-propan-1-one] | < 300 nM | –
< 300 nM | < 300 nM | C[C@@H]1CN(C(=O)[C@@](C)(O)C(F)(F)F)Cc2cnn(-c3ccccc3F)c21 [Compound A24, (R)-3,3,3-Trifluoro-1-[(R)-1-(2-fluoro-phenyl)-7-methyl-1,4,6,7-tetrahydro-pyrazolo[4,3-c]pyridin-5-yl]-2-hydroxy-2-methyl-propan-1-one] | < 300 nM | –
< 300 nM | 300 to 3000 nM | C[C@@H]1CN(C(=O)[C@@](C)(O)C(F)(F)F)Cc2cn[nH]c21 [Compound A28, (R)-3,3,3-Trifluoro-2-hydroxy-2-methyl-1-((R)-7-methyl-1,4,6,7-tetrahydro-pyrazolo[4,3-c]pyridin-5-yl)-propan-1-one] | 3000 to 50000 nM | –
< 300 nM | < 300 nM | C[C@@H]1CN(C(=O)[C@@](C)(O)C(F)(F)F)Cc2cnn(-c3ncccc3F)c21 [Compound A32, (R)-3,3,3-Trifluoro-1-[(R)-1-(3-fluoro-pyridin-2-yl)-7-methyl-1,4,6,7-tetrahydro-pyrazolo[4,3-c]pyridin-5-yl]-2-hydroxy-2-methyl-propan-1-one] | < 300 nM | –
< 300 nM | < 300 nM | C[C@@H]1CN(C(=O)[C@@](C)(O)C(F)(F)F)Cc2cnn(-c3ncc(F)cc3F)c21 [Compound A34, (R)-1-[(R)-1-(3,5-Difluoro-pyridin-2-yl)-7-methyl-1,4,6,7-tetrahydro-pyrazolo[4,3-c]pyridin-5-yl]-3,3,3-trifluoro-2-hydroxy-2-methyl-propan-1-one] | < 300 nM | –
300 to 3000 nM | 300 to 3000 nM | COc1ncc(F)c(-n2ncc3c2[C@@H](C)CN(C(=O)[C@@](C)(O)C(F)(F)F)C3)n1 [Compound A37, (R)-3,3,3-Trifluoro-1-[(S)-1-(5-fluoro-2-methoxy-pyrimidin-4-yl)-7-methyl-1,4,6,7-tetrahydro-pyrazolo[4,3-c]pyridin-5-yl]-2-hydroxy-2-methyl-propan-1-one] | 3000 to 50000 nM | –
< 300 nM | < 300 nM | C[C@@H]1CN(C(=O)[C@@](C)(O)C(F)(F)F)Cc2cnn(C3CCC(O)CC3)c21 (stereo partly drawn) [Compound A38, (R)-3,3,3-Trifluoro-2-hydroxy-1-[(R)-1-(4-hydroxy-cyclohexyl)-7-methyl-1,4,6,7-tetrahydro-pyrazolo[4,3-c]pyridin-5-yl]-2-methyl-propan-1-one] | < 300 nM | –
< 300 nM | < 300 nM | C[C@@H]1CN(C(=O)[C@@](C)(O)C(F)(F)F)Cc2cnn(-c3ccc(F)cn3)c21 [Compound A40, (R)-3,3,3-Trifluoro-1-[(R)-1-(5-fluoro-pyridin-2-yl)-7-methyl-1,4,6,7-tetrahydro-pyrazolo[4,3-c]pyridin-5-yl]-2-hydroxy-2-methyl-propan-1-one] | < 300 nM | –
< 300 nM | 300 to 3000 nM | C[C@@](O)(C(=O)N1CCc2ncn(-c3ccccc3)c2C1)C(F)(F)F [Compound A43, (R)-3,3,3-Trifluoro-2-hydroxy-2-methyl-1-(3-phenyl-3,4,6,7-tetrahydro-imidazo[4,5-c]pyridin-5-yl)-propan-1-one] | – | 300 to 3000 nM

SMILES | Kd (human PDHK2 (12-407)) | IC50 (PDHK2) | IC50 ([1]; Homo sapiens, HEK-293T) | IC50 [1]
C[C@H]1CN(C(=O)[C@@](C)(O)C(F)(F)F)Cc2cnn(-c3ccc(Cl)cc3)c21 [Compound A11, (R)-1-[(S)-1-(4-Chloro-phenyl)-7-methyl-1,4,6,7-tetrahydro-pyrazolo[4,3-c]pyridin-5-yl]-3,3,3-trifluoro-2-hydroxy-2-methyl-propan-1-one] | 300 to 3000 nM | 3000 to 50000 nM | 300 to 3000 nM | –
CC1CN(C(=O)[C@@](C)(O)C(F)(F)F)Cc2cn(-c3ccccc3)nc21 (stereo partly drawn) [Compound A17, (R)-3,3,3-Trifluoro-2-hydroxy-2-methyl-1-(7-methyl-2-phenyl-2,4,6,7-tetra-hydro-pyrazolo[4,3-c]pyridin-5-yl)-propan-1-one] | 300 to 3000 nM | 300 to 3000 nM | 300 to 3000 nM | –
